“Also recorded” adds a separate entry of the source.
Key:
MMP-2 = target: T1, MMP-2 (Mus musculus, UniProt P33434); experiment: Gelatin zymography of gastric tissue extract, MMP-2; type: in vivo, mice; details: pretreatment before indomethacin
T1 construct: Tissue extracts were electrophoresed in SDS-PAGE containing gelatin under nonreducing conditions; from tissue; host or cells: mouse stomach (gastric tissue) PBS / Triton X-100 extracts
Method: The whole stomach (including fundic, body and pyloric parts) was washed with saline and used for extraction. Stomach except connective tissue layer (named as gastric tissue) were suspended in 10 mM phosphate buffer saline (PBS) containing protease inhibitors, minced and incubated for 10 min at 4° C. After centrifugation at 12,000 g for 15 min, the supernatant was collected as PBS extracts. The pellet was then extracted in lysis buffer (10 mM Tris-HCl pH 8.0, 150 mM NaCl, 1% Triton X-100 and protease inhibitors) and centrifuged at 12,000 g for 15 min to obtain TX extracts. Both PBS and TX extracts were preserved at −70° C. and used in future studies. Proteins were estimated either by Lowry method or by Bradford assay.
For the analysis of MMP-9 activity, tissue extracts were electrophoresed in 8% SDS-PAGE containing 1 mg/mL gelatin under nonreducing conditions. Equal amounts of tissue extracts (70 μg of total protein) were loaded in all the lanes. […] Quantification of zymographic bands was performed using densitometry linked to proper software (Lab Image, Kapelan Gmbh, Leipzig, Germany). […]
Tissue extracts were electrophoresed in SDS-PAGE containing gelatin under nonreducing conditions. […] Gelatinolytic activity came as negative staining and was quantified by Lab Image software.

[1] = test system: indomethacin-induced acute gastric ulcers; experiment: Protection studies of gastric ulceration in vivo (indomethacin-induced acute gastric ulcer, ulcer index); set-up: species or system Balb/c mice; details: for inhibition in ulcer index: 4 h
Method: Animal experiments were carried out using Balb/c mice (20-25 g). Animals were anesthetized with ketamine (12 mg/kg b.w.) prior to cervical dislocation. Control and experimental animals were fasted for 6 hr with free access to water.
Balb/c mice (20-25 g) bred in-house with free access to food and water was used for all experiments. Experiments were designed to minimize animal suffering and to use the minimum number associated with valid statistical evaluation. Animals were anesthetized with ketamine (12 mg/kg b.w.) followed by cervical dislocation. Animal experiments were carried out following the guidelines of animal ethics committee of the institute. Control and experimental animals were fasted for 6 h with free access to water.
Before ulcer induction, animals of both control and experimental groups were kept separately in standard controlled conditions. Acute gastric ulcers were induced by oral administration of indomethacin at a dose of 80 mg/kg b.w. The control group received the vehicle only (olive oil), whereas the experimental group received indomethacin for gastric ulceration. After 4 h, the animals were sacrificed and gastric lesions in the fundic stomach were scored and expressed as obtained by counting the number of red bands/dots as follows: 0=no pathology; 1=a small pinhead ulcer spot; and 2-5=a band like lesion of 2-5 mm length. Total score become ˜50 when ulcer is severe. The sum of the total scores as divided by the number of animals was expressed as the mean ulcer index. Formulations were administered orally 30 min prior to indomethacin treatment to check the gastroprotective effect. Among all the chemical compositions of 3-indolyl furanoids synthesized (table 1), compounds 1, 2, 5, 8, 9 and 12 were tested for prevention studies against gastric inflammation in vivo.

[2] = test system: lipid peroxide content (TBARS); experiment: Measurement of lipid peroxidation (TBARS) in gastric tissue homogenate; type: in vivo; details: ulcerated mice
Method: The fundic stomach homogenate was used for measurement of lipid peroxide content as thiobarbituric acid reactive species (TBARS).
The cytosolic fraction from the gastric tissue homogenate was used for measurement of lipid peroxide content as thiobarbituric acid reactive species (TBARS). Briefly, 1 mL of the cytosolic fraction was allowed to react with 2 mL of TCA-TBA-HCl (15% TCA, 0.375% TBA, 0.25 N HCl) reagent, heated in a boiling water-bath for 15 min, cooled and centrifuged. The absorbance of the supernatant was measured for nano moles of TBARS at 535 nm (ε=1.5×10^5/M/cm).

[3] = test system: gastric epithelium and submucosa; experiment: Haematoxylin-eosin staining of gastric tissue sections; type: in vivo; details: 50 mg/kg body weight, indomethacin ulcerated mice
Text: To understand the fine information about the physical condition (the level of damage and/or intactness) of cells tissues under observation, different tissue samples were fixed in 10% formalin and embedded in paraffin. Tissue sections were deparaffinized with xylene and rehydrated with descending alcohol series. The sections were cut using microtome, and stained with hematoxylin and eosin, or subjected to Terminal deoxynucleotidyl transferase-mediated dUTP Nick End Labeling (TUNEL) assay by using a in situ apoptosis detection kit. Fixation, permeabilization, and staining were carried out in exact parallel to ensure comparative significance among normal, ulcerated and compound 5 treated groups. […] Images at 10× and 40× magnification were captured using Camedia software (E-20P 5.0 Megapixel) and processed under Adobe Photoshop version 7.0 (FIG. 1B).
Tissue sections were stained with hematoxylin and eosin stain. Fixation, permeabilization, and staining were carried out in parallel in normal, ulcerated and compound 5 treated groups to ensure comparative significance among different treatment. TUNEL assay is used for detection and quantification of apoptosis in gastric tissues, based on labelling of DNA strand breaks. Terminal deoxynucleotidyl transferase-mediated dUTP Nick End Labeling (TUNEL) assay was performed by using an in situ apoptosis detection kit. […]

T1 sequence (P33434 110-662): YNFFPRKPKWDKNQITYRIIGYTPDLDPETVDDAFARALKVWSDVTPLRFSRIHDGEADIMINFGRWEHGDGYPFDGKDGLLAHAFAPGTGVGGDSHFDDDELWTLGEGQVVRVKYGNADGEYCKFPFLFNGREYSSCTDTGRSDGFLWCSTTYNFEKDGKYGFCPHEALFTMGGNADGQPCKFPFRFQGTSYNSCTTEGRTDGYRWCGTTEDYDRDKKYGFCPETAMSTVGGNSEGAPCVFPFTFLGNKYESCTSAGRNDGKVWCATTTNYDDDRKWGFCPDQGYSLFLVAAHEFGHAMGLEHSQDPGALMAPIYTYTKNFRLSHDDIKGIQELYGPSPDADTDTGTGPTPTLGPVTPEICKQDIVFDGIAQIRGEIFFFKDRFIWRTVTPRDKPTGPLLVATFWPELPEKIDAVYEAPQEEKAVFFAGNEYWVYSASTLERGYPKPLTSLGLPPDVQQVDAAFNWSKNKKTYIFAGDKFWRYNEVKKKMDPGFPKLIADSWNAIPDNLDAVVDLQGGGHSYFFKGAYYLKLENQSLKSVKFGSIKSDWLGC

## COc1cccc2[nH]cc(-c3cc(-c4ccccc4)oc3-c3ccccc3)c12 [compound 5, 4-methoxy-3-(2,5-diphenylfuran-3-yl)-1H-indole]
MMP-2
  MMP-2 activity in gastric tissue extract: remained unaltered
[1]; 10 mg/kg bw oral prior to indomethacin 80 mg/kg
  inhibition in ulcer index: 40%
[1]; 25 mg/kg bw oral prior to indomethacin 80 mg/kg
  inhibition in ulcer index: 80%
[1]; Mus musculus, 50 mg/kg body weight oral in olive oil, indomethacin 80 mg/kg, scored after 4 h, Balb/c mice
  inhibition in vivo at 50 mg/kg: 95%
[2]
  Lipid peroxidation: 0.47±0.15 nmol TBARS/mg tissue
[2]; listed as Compound 5
  Lipid peroxidation: 0.47 ± 0.15 nmol TBARS/mg tissue
[3]
  gastric injury, haematoxylin-eosin staining: minimum injury and intact epithelial layer; also recorded: prevents indomethacin induced gastric injury

Source: patent publication US10590116B2, “3-indolyl furanoids as inhibitors of matrix metalloproteinase-9 for prevention of gastric ulcer and other inflammatory diseases” (Council of Scientific & Industrial Research, priority 2017, dated 2020)
